Test results from patent US7939265B2, “Agents for and method of quantifying binding” (Badrilla Limited, priority 2004, dated 2011).
Where no end group is shown, it is not given here. [ ]: non-standard residue; d: D form. pS = N[C@@H](COP(=O)(O)O)C(=O)O

Molecular target: polyclonal antiserum SERCA PS-38
Assay: Peptide inhibition of antiserum SERCA PS-38 binding to antigen
Design: species or system rabbit
Conditions: competition against polyclonal antiserum SERCA PS-38
Procedure: Phosphorylated Ca^2+-ATPase peptide on Ser-38 residue (^31KLKERWGS (PO4)NEL^41) was prepared by the CaMKII phosphorylation of peptide ^31KLKERWGSNEL^41. The phosphopeptide was purified to homogeneity by reverse phase high performance liquid chromatography. Peptide was conjugated to keyhole limpet haemocyanin (KLH) using carbodiimide cross linkage (3) and dialysed extensively against buffer (50 mM Tris-HCl pH 7.2, 150 mM NaCl). Adult New Zealand White rabbits were immunised with ˜150 μg KLH and attached peptide at 6 weeks intervals and immune serum collected 11 days after immunisations. Serum was prepared and stored at −70° C. A polyclonal antiserum is described herein: SERCA PS-38 raised to the phosphorylated peptide.
The phosphorylation of SERCA2 on Ser-38 has been described as a regulatory feature capable of very significant activation of Ca2+-ATPase activity. This site, although unique to SERCA2, is contained within a segment of the protein which is highly conserved between SERCA1 and SERCA2 particularly from residue 39 onwards. […] By analogy with SERCA1, for which two high resolution structures exist the Ser-38 site of phosphorylation on SERCA2 is predicted to be in a surface exposed, highly mobile segment of the protein. […]

| IC50 (read-out: inhibition of antibody binding to antigen (IC50)) [nM] | Substance | interference with antibody:antigen recognition |
| --- | --- | --- |
| 18 | 31KLKERWGS(PO4)NEL41 (KLKERWG[pS]NEL; UniProt P16615 31-41, looked up, fragment) [phosphopeptide] | – |
| – | 31KLKERWGSNEL41 (UniProt P16615 31-41, looked up, fragment) [dephosphorylated peptide, equivalent dephosphorylated SERCA2a Ser-38 peptide] | unable to interfere with antibody:antigen recognition |
